# The source made the active and inactive calls. The rule behind the calls is not given here.
# Experiments:
# [1] = Upregulation of acetylated H4 protein expression in human MDA-MB-231 cells assessed as fold change at 0.05 uM incubated for 24 hrs by immunoblotting analysis (reference value: 1); format: functional
# [2] = Upregulation of acetylated H4 protein expression in human MDA-MB-231 cells assessed as fold change at 0.1 uM incubated for 24 hrs by immunoblotting analysis (reference value: 1); format: functional
# Histone deacetylase 4 = Histone deacetylase 4 (Homo sapiens, UniProt P56524); assay: Inhibition of recombinant human HDAC4 using acetylated luminogenic substrate incubated for 10 mins by ultra-glo recombinant firefly luciferase based luminescence assay
# Histone deacetylase 4, sequence (P56524 whole entry): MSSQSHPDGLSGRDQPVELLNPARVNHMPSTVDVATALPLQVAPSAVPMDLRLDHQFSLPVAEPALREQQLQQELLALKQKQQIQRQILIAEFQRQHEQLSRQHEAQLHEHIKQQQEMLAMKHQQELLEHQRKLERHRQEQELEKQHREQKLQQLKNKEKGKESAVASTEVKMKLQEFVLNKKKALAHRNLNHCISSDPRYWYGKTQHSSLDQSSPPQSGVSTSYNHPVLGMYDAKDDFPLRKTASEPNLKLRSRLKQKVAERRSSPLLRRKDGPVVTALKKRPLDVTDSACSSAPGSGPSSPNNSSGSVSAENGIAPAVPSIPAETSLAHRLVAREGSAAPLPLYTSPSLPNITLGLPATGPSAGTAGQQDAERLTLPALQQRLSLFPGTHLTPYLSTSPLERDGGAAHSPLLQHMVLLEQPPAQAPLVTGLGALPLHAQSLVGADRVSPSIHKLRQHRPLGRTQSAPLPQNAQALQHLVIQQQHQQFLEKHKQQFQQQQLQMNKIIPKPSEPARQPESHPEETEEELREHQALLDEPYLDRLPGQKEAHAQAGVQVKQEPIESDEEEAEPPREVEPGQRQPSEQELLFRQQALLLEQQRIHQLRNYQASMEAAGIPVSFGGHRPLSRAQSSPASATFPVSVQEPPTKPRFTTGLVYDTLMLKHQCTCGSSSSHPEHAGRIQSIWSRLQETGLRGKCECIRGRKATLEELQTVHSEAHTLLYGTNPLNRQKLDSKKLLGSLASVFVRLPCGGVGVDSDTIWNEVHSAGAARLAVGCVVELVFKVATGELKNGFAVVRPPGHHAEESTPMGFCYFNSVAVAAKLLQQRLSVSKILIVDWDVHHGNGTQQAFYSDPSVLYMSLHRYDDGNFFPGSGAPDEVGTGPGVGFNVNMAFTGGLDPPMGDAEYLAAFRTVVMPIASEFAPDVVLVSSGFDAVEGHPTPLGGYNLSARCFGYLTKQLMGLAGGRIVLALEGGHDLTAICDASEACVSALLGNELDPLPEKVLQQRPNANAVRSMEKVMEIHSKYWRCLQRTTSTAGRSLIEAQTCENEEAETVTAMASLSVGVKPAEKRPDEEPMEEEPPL
# Histone deacetylase 7 = target: T1, Histone deacetylase 7 (Homo sapiens, UniProt Q8WUI4); assay: Inhibition of recombinant human HDAC7 using acetylated luminogenic substrate incubated for 10 mins by ultra-glo recombinant firefly luciferase based luminescence assay
# T1 sequence (Q8WUI4 whole entry): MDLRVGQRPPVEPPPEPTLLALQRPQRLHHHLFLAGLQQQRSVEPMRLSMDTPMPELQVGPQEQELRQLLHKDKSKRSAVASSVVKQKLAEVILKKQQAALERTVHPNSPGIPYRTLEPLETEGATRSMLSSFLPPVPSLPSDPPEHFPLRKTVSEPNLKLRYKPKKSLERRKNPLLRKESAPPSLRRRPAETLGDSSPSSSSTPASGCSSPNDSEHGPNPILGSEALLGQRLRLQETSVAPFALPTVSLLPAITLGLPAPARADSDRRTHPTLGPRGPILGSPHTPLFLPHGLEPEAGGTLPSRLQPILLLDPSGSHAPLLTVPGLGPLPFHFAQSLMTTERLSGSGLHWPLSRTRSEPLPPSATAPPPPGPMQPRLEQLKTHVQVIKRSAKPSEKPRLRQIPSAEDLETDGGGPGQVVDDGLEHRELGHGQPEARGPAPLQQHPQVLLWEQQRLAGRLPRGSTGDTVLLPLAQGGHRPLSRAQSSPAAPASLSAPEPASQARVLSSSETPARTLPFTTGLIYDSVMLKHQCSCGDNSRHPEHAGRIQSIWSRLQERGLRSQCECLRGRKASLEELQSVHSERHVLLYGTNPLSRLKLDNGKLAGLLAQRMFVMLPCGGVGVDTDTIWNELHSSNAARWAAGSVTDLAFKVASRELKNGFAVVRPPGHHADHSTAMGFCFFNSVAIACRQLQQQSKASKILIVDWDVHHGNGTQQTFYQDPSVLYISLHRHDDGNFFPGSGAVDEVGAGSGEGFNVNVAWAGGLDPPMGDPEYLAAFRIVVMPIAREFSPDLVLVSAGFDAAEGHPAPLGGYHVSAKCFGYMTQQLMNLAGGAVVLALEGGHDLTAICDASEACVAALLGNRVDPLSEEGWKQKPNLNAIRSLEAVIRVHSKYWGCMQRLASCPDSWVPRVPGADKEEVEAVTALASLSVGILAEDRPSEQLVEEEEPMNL
# [3] = Downregulation of HDAC1 protein expression in human MDA-MB-231 cells assessed as fold change at 0.05 uM incubated for 24 hrs by immunoblotting analysis (reference value: 1); format: functional
# [4] = Effect on HDAC2 protein expression in human MDA-MB-231 cells assessed as fold change at 0.05 uM incubated for 24 hrs by immunoblotting analysis (reference value: 1); format: functional
# [5] = Downregulation of HDAC3 protein expression in human MDA-MB-231 cells assessed as fold change at 0.05 uM incubated for 24 hrs by immunoblotting analysis (reference value: 1); format: functional
# [6] = Downregulation of HDAC3 protein expression in human MDA-MB-231 cells assessed as fold change at 0.1 uM incubated for 24 hrs by immunoblotting analysis (reference value: 1); format: functional
# [7] = Downregulation of HDAC8 protein expression in human NCI-H1975 cells assessed as fold change at 0.05 uM incubated for 24 hrs by immunoblotting analysis (reference value: 1); format: functional
# [8] = Effect on HDAC8 protein expression in human MDA-MB-231 cells assessed as fold change at 0.1 uM incubated for 24 hrs by immunoblotting analysis (reference value: 1); format: functional
# [9] = Effect on HDAC5 protein expression in human MDA-MB-231 cells assessed as fold change at 0.05 uM incubated for 24 hrs by immunoblotting analysis (reference value: 1); format: functional
# [10] = Downregulation of HDAC5 protein expression in human MDA-MB-231 cells assessed as fold change at 0.1 uM incubated for 24 hrs by immunoblotting analysis (reference value: 1); format: functional
# [11] = Downregulation of HDAC7 protein expression in human MDA-MB-231 cells assessed as fold change at 0.1 uM incubated for 24 hrs by immunoblotting analysis (reference value: 1); format: functional
# [12] = Effect on HDAC9 protein expression in human MDA-MB-231 cells assessed as fold change at 0.05 uM incubated for 24 hrs by immunoblotting analysis (reference value: 1); format: functional
# [13] = Downregulation of HDAC6 protein expression in human NCI-H1975 cells assessed as fold change at 0.1 uM incubated for 24 hrs by immunoblotting analysis (reference value: 1); format: functional
# [14] = Downregulation of HDAC10 protein expression in human NCI-H1975 cells assessed as fold change at 0.1 uM incubated for 24 hrs by immunoblotting analysis (reference value: 1); format: functional
# [15] = Downregulation of HDAC10 protein expression in human MDA-MB-231 cells assessed as fold change at 0.1 uM incubated for 24 hrs by immunoblotting analysis (reference value: 1); format: functional
# [16] = Effect on HDAC11 protein expression in human NCI-H1975 cells assessed as fold change at 0.1 uM incubated for 24 hrs by immunoblotting analysis (reference value: 1); format: functional
# [17] = Downregulation of HDAC11 protein expression in human MDA-MB-231 cells assessed as fold change at 0.05 uM incubated for 24 hrs by immunoblotting analysis (reference value: 1); format: functional
# NCI-H1975 = assay: Antitumor activity against human NCI-H1975 cells xenografted in athymic nude BALB/c mouse assessed as cell apoptosis in tumor region at 6 mg/kg, ip administered 5 times a week for 3 weeks and measured on day 22 by TUNEL assay; format: functional, organism-based; details: time 22.0 day
# [18] = Toxicity in athymic nude BALB/c mouse xenografted with human NCI-H1975 cells assessed as effect on creatinine level at 6 mg/kg, ip administered 5 times a week for 3 weeks and measured on day 22; format: organism-based; details: in vivo, 528 h, time 22 day
# MDA-MB-231 = assay: Antitumor activity against human MDA-MB-231 cells xenografted in athymic nude BALB/c mouse assessed as average tumor size at 3 mg/kg, ip administered 5 times a week for 7 weeks and measured on day 47 (reference value: 15.4 +/- 5.3 mm3); format: functional; details: time 47 day
# [19] = Toxicity in athymic nude BALB/c mouse xenografted with human MDA-MB-231 cells assessed as effect on AST level in serum at 3 mg/kg, ip administered 5 times a week for 7 weeks; format: organism-based; details: in vivo, 1176 h
smiles,measurement,setting,value
CCOc1ccc(-c2nc(C(=O)NCc3ccc(C(=O)NO)cc3)c3[nH]c(=O)n(-c4cccnc4OC)c3n2)cn1,fold change (FC),[1],1.74
same,fold change (FC),[2],2.91
same,IC50,Histone deacetylase 4,> 1 µM
same,IC50,Histone deacetylase 7,> 1 µM
same,fold change (FC),[3],0.84
same,fold change (FC),[4],1.18
same,fold change (FC),[5],0.82
same,fold change (FC),[6],0.65
same,fold change (FC),[7],0.85
same,fold change (FC),[8],1.08
same,fold change (FC),[9],1.16
same,fold change (FC),[10],0.99
same,fold change (FC),[11],0.58
same,fold change (FC),[12],1.08
same,fold change (FC),[13],0.41
same,fold change (FC),[14],0.9
same,fold change (FC),[15],0.88
same,fold change (FC),[16],1.85
same,fold change (FC),[17],0.53
same,Activity,NCI-H1975,Active
same,Activity,[18],Non-Toxic
same,Activity,MDA-MB-231,1.7 mm3
same,Activity,[19],Non-Toxic
